In US20100317624A1 (ASTRAZENECA AB, priority 2009, published 2010):

Target: S. aureus GyrB ATPase (Staphylococcus aureus, UniProt P0A0K8)
Test: S. aureus GyrB ATPase inhibition (ammonium molybdate/malachite green phosphate detection)
Assay type: biochemical
Details: compound at 1 μM; inhibition of S. aureus GyrB ATPase; read-out: Percent Inhibition (1 μM)
Protocol: S. aureus GyrB ATPase Inhibition Activity: Compounds may be tested for inhibition of S. aureus GyrB ATPase activity using an ammonium molybdate/malachite green-based phosphate detection assay (Lanzetta, P. A., L. J. Alvarez, P. S. Reinach, and O. A. Candia, 1979, 100: 95-97). Assays can be performed in multiwell plates in 30 μl reactions containing: 50 mM Hepes buffer pH 7.5, 75 mM ammonium acetate, 8.0 mM magnesium chloride, 0.5 mM ethylenediaminetetraacetic acid, 5% glycerol, 1.0 mM 1,4-Dithio-DL-threitol, 200 nM bovine serum albumin, 1.0 μg/ml sheared salmon sperm DNA, 250 pM E. coli GyrA, 250 pM S. aureus GyrB, 250 μM ATP, and compound in dimethylsulfoxide. Reactions can be quenched with 30 μl of ammonium molybdate/malachite green detection reagent containing 1.2 mM malachite green hydrochloride, 8.5 mM ammonium molybdate tetrahydrate, and 1 M hydrochloric acid. Plates can be read in an absorbance plate reader at 650 nm and percent inhibition values can be calculated using dimethylsulfoxide (2%)-containing reactions as 0% inhibition and EDTA-containing ([…]) reactions as 100% inhibition controls. An IC50 measurement of compound potency for each compound can be determined from reactions performed in the presence of 10 different compound concentrations.

Sequence of S. aureus GyrB ATPase (P0AES4 whole entry): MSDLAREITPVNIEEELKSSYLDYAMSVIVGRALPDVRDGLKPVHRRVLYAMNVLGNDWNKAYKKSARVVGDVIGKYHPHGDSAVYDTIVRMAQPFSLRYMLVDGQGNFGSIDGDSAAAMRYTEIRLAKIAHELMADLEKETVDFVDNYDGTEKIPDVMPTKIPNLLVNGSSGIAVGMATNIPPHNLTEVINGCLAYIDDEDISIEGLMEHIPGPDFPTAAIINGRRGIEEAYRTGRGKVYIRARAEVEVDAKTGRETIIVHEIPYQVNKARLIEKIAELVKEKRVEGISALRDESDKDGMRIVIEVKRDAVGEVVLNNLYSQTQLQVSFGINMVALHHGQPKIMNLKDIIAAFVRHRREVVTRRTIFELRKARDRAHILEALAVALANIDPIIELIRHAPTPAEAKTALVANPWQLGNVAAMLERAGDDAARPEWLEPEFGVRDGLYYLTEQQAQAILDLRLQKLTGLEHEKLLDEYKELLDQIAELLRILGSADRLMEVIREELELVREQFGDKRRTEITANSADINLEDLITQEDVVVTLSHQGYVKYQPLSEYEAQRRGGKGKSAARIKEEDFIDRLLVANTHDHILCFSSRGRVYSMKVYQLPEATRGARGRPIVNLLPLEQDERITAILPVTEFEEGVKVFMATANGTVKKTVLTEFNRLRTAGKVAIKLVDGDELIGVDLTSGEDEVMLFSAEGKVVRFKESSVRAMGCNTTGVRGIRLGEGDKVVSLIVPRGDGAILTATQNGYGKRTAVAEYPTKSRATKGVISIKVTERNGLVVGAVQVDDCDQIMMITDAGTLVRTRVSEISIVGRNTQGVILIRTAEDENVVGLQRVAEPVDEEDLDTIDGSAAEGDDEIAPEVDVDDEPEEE
Sequence of S. aureus GyrB ATPase (P0A0K8 whole entry): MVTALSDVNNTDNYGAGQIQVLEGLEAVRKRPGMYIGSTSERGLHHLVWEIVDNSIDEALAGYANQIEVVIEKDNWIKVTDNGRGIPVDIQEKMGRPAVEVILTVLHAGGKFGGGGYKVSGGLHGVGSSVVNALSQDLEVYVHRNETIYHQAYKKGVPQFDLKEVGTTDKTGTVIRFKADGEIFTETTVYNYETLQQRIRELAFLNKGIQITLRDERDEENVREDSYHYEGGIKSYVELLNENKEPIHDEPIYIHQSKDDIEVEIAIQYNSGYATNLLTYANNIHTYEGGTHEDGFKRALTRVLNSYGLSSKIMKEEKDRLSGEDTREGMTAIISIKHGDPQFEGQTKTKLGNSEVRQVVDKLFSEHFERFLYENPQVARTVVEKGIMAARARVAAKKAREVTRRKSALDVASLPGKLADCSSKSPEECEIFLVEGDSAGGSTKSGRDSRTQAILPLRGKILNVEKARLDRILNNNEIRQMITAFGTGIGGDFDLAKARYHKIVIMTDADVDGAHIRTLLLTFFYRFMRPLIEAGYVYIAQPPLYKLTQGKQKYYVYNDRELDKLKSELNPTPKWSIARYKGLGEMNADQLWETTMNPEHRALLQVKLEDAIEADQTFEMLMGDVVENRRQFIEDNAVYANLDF

SMILES	inhibition at 1 µM [%]
CCNC(=O)Nc1cc(-c2nc(C(F)(F)F)cs2)c(-c2ccc3c(=O)c(C(=O)NCCCOP(=O)(O)O)cn(CC)c3c2)cn1 [Example 14, 3-{[(1-ethyl-7-{6-[(ethylcarbamoyl)amino]-4-[4-(trifluoromethyl)-1,3-thiazol-2-yl]pyridin-3-yl}-4-oxo-1,4-dihydroquinolin-3-yl)carbonyl]amino}propyl dihydrogen phosphate]	97
CCNC(=O)Nc1cc(-c2nc(C(F)(F)F)cs2)c(-c2ccc3c(c2)c(=O)c(C(=O)N(C)C)cn3CCN(C)C)cn1 [Example 29, 1-[2-(Dimethylamino)ethyl]-6-{6-[(ethylcarbamoyl)amino]-4-[4-(trifluoromethyl)-1,3-thiazol-2-yl]pyridin-3-yl}-N,N-dimethyl-4-oxo-1,4-dihydroquinoline-3-carboxamide]	93
CCNC(=O)Nc1cc(-c2nc(C(F)(F)F)cs2)c(-c2ccc3c(c2)c(=O)c(C(=O)OCCOC(=O)CC)cn3C(COC)COC)cn1 [Example 42, 2-(propionyloxy)ethyl 1-(1,3-dimethoxypropan-2-yl)-6-(6-(3-ethylureido)-4-(4-(trifluoromethyl)thiazol-2-yl)pyridin-3-yl)-4-oxo-1,4-dihydroquinoline-3-carboxylate]	104
CCNC(=O)Nc1cc(-c2nc([C@H](N)C(C)C)cs2)c(-c2ccc3c(c2)c(=O)c(C(=O)O)cn3[C@H](CO)C(C)(C)C)cn1 [Example 53, 6-(4-(4-((R)-1-amino-2-methylpropyl)thiazol-2-yl)-6-(3-ethylureido)pyridin-3-yl)-1-((S)-1-hydroxy-3,3-dimethylbutan-2-yl)-4-oxo-1,4-dihydroquinoline-3-carboxylic acid]	46
CCNC(=O)Nc1cc(-c2nc(C(F)(F)F)cs2)c(-c2cc3c(=O)c(C(=O)O)cn(CC)c3cc2N2CCN(C)CC2)cn1 [Example 22, 1-ethyl-6-(6-(3-ethylureido)-4-(4-(trifluoromethyl)thiazol-2-yl)pyridin-3-yl)-7-(4-methylpiperazin-1-yl)-4-oxo-1,4-dihydroquinoline-3-carboxylic acid]	103
CCNC(=O)Nc1cc(-c2nc(C(F)(F)F)cs2)c(-c2ccc3c(c2)c(=O)c(C(=O)OCCOC(C)=O)cn3C(COC)COC)cn1 [Example 41, 2-acetoxyethyl 1-(1,3-dimethoxypropan-2-yl)-6-(6-(3-ethylureido)-4-(4-(trifluoromethyl)thiazol-2-yl)pyridin-3-yl)-4-oxo-1,4-dihydroquinoline-3-carboxylate]	107
CCNC(=O)Nc1cc(-c2nc(C(F)(F)F)cs2)c(-c2ccc3c(c2)c(=O)c(C(=O)OCOC(C)=O)cn3C(COC)COC)cn1 [Example 38, Acetoxymethyl 1-(1,3-dimethoxypropan-2-yl)-6-(6-(3-ethylureido)-4-(4-(trifluoromethyl)thiazol-2-yl)pyridin-3-yl)-4-oxo-1,4-dihydroquinoline-3-carboxylate]	105
CCNC(=O)Nc1cc(-c2nc(C(F)(F)F)cs2)c(-c2cc3c(=O)c(C(=O)O)cn([C@H](CO)C(C)(C)C)c3cc2F)cn1 [Example 27, 6-(6-(3-ethylureido)-4-(4-(trifluoromethyl)thiazol-2-yl)pyridin-3-yl)-7-fluoro-1-((S)-1-hydroxy-3,3-dimethylbutan-2-yl)-4-oxo-1,4-dihydroquinoline-3-carboxylic acid]	125
CCNC(=O)Nc1cc(-c2nc(C(F)(F)F)cs2)c(-c2ccc3c(c2)c(=O)c(C(=O)O)cn3CC(C)N2CCOCC2)cn1 (stereo not drawn) [Example 56, 6-(6-(3-Ethylureido)-4-(4-(trifluoromethyl)thiazol-2-yl)pyridin-3-yl)-1-(2-morpholinopropyl)-4-oxo-1,4-dihydroquinoline-3-carboxylic acid]	101
